# Assay results taken from patent publication US20080058213A1, “Benzoxazole Compounds” (priority 2004, published 2008).
# Columns and labels:
# Format in all cases: in vivo
# common lambsquaters = experiment: Foliage treatment test for upland field (Test Example 3): common lambsquaters; details: foliage treatment at 1.0-2.0 leaf stage of southern crabgrass, examined after 3 weeks
# Source text: (§1) Evaluation of the herbicidal effect is shown in the following six grades, by comparing the condition of untreated control and growth inhibition (%): • 0: 0%-less than 20% • 1: 20%-less than 40% • 2: 40%-less than 60% • 3: 60%-less than 80% • 4: 80%-less than 100% • 5: 100%.
# (§2) Compost mixed soil was filled in 1/3,000 are pots, seeded with southern crabgrass, common lambsquaters, slender amaranth, common purslane, velvetleaf, wheat, corn and soybean. The seeds were covered up with the soil and cultured in a glasshouse kept at 25° C. on the average.
# (§3) Wettable powders containing the object compounds (1) as identified in Table 1, which were formulated following Preparation Example 2, were diluted with water to the prescribed dose of the active ingredient, and uniformly sprayed onto the weeds at 1.0-2.0 leaf stage of the southern crabgrass at an application water of 15 liters per are.
# (§4) After placing the test pots in a grasshouse kept at 25° C. on the average for 3 weeks, the herbicidal effect was examined.
# (§5) Evaluation of the herbicidal effect was conducted in the similar manner to Test Example 1.
# soybean [1] = experiment: Soil treatment test for upland field (Test Example 2): phytotoxicity to soybean; details: soil treatment before germination, examined after 3 weeks
# common purslane = experiment: Foliage treatment test for upland field (Test Example 3): common purslane; details: foliage treatment at 1.0-2.0 leaf stage of southern crabgrass, examined after 3 weeks
# Source text: as §1, §2, §3, §4, §5
# [2] = test system: common lambsquaters (Chenopodium album); experiment: Soil treatment test for upland field (Test Example 2): common lambsquaters; details: soil treatment before germination, examined after 3 weeks
# Procedure, shortened: (§6)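 Pots of upland soil were seeded and covered, then wettable-powder formulations at the prescribed active-ingredient dose were sprayed onto the soil surface before weed germination, in 15 liters water per are. After 3 weeks in a glasshouse at about 25° C., growth inhibition versus untreated control was scored 0 (<20%) to 5 (100%).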
# soybean [3] = experiment: Foliage treatment test for upland field (Test Example 3): phytotoxicity to soybean; details: foliage treatment at 1.0-2.0 leaf stage of southern crabgrass, examined after 3 weeks
# Procedure: (§7) Evaluation of phytotoxicity is shown in the following six grades, as compared with the condition of untreated control: • 0: normal growth • 1: little damaged • 2: low damaged • 3: medium damaged • 4: serious damaged • 5: complete killed.
# as §2, §4
# [4] = test system: common purslane (Portulaca oleracea); experiment: Soil treatment test for upland field (Test Example 2): common purslane; details: soil treatment before germination, examined after 3 weeks
# Procedure, shortened: as §6
# wheat [5] = experiment: Soil treatment test for upland field (Test Example 2): phytotoxicity to wheat; details: soil treatment before germination, examined after 3 weeks
# rice plant = experiment: Weed control test for paddy field (Test Example 1): phytotoxicity to rice plant; details: in vivo
# Source text: (§8) Paddy field soil was filled in 1/10,000 are pots, kneaded with adequate amounts of water and chemical fertilizer, seeded with barnyard grass (Echinochloa crusgalli), Monochoria (Monochoria vaginalis), Japanese bulrush (Scirpus juncoides) and flat sedge (Cyperus serotinus), and further transplanted with 2.0 leaf stage of rice plant. The pots were maintained under the water-filled condition to a depth of 3 cm.
# (§9) Wettable powders containing the compounds (1) as identified in Table 1, which were formulated following Production Example 2, were diluted with adequate amount of water and applied to the pots dropwise with pippet at a prescribed dose of the active ingredients per are, at 1.0 leaf stage of the barnyard grass.
# (§10) After placing the pots in a glasshouse which was controlled at an average temperature of 25° C. for 3 weeks, herbicidal effect was examined.
# as §7
# velvetleaf = experiment: Foliage treatment test for upland field (Test Example 3): velvetleaf; details: foliage treatment at 1.0-2.0 leaf stage of southern crabgrass, examined after 3 weeks
# Source text: as §1, §2, §3, §4, §5
# [6] = test system: southern crabgrass (Digitaria ciliaris); experiment: Soil treatment test for upland field (Test Example 2): southern crabgrass; details: soil treatment before germination, examined after 3 weeks
# Procedure, shortened: as §6
# [7] = test system: flat sedge (Cyperus serotinus); experiment: Weed control test for paddy field (Test Example 1): flat sedge; details: paddy pots, treated at 1.0 leaf stage of barnyard grass, examined after 3 weeks
# Source text: as §8, §9, §10, §1
# [8] = test system: Monochoria (Monochoria vaginalis); experiment: Weed control test for paddy field (Test Example 1): Monochoria; details: paddy pots, treated at 1.0 leaf stage of barnyard grass, examined after 3 weeks
# Source text: as §8, §9, §10, §1
# [9] = test system: slender amaranth (Amaranthus viridis); experiment: Soil treatment test for upland field (Test Example 2): slender amaranth; details: soil treatment before germination, examined after 3 weeks
# Procedure, shortened: as §6
# slender amaranth = experiment: Foliage treatment test for upland field (Test Example 3): slender amaranth; details: foliage treatment at 1.0-2.0 leaf stage of southern crabgrass, examined after 3 weeks
# Source text: as §1, §2, §3, §4, §5
# [10] = test system: barnyard grass (Echinochloa crusgalli); experiment: Weed control test for paddy field (Test Example 1): barnyard grass; details: paddy pots, treated at 1.0 leaf stage of barnyard grass, examined after 3 weeks
# Source text: as §8, §9, §10, §1
# [11] = test system: Japanese bulrush (Scirpus juncoides); experiment: Weed control test for paddy field (Test Example 1): Japanese bulrush; details: paddy pots, treated at 1.0 leaf stage of barnyard grass, examined after 3 weeks
# Source text: as §8, §9, §10, §1
# corn [12] = experiment: Foliage treatment test for upland field (Test Example 3): phytotoxicity to corn; details: foliage treatment at 1.0-2.0 leaf stage of southern crabgrass, examined after 3 weeks
# Procedure: as §7, §2, §4
# corn [13] = experiment: Soil treatment test for upland field (Test Example 2): phytotoxicity to corn; details: soil treatment before germination, examined after 3 weeks
# southern crabgrass = experiment: Foliage treatment test for upland field (Test Example 3): southern crabgrass; details: foliage treatment at 1.0-2.0 leaf stage of southern crabgrass, examined after 3 weeks
# Source text: as §1, §2, §3, §4, §5
# [14] = test system: velvetleaf (Abutilon theophrasti); experiment: Soil treatment test for upland field (Test Example 2): velvetleaf; details: soil treatment before germination, examined after 3 weeks
# Procedure, shortened: as §6
# wheat [15] = experiment: Foliage treatment test for upland field (Test Example 3): phytotoxicity to wheat; details: foliage treatment at 1.0-2.0 leaf stage of southern crabgrass, examined after 3 weeks
# Procedure: as §7, §2, §4
compound,measurement,setting,value
COC/C(=C\c1cccc(C(F)(F)F)c1)c1nc2cc(Cl)ccc2o1 [Compound 3],Herbicidal Effect Common lambsquatters,common lambsquaters; dose 2.5 g ai/a,5 (100%)
same,Herbicidal Effect Common lambsquatters,common lambsquaters; dose 5 g ai/a,5 (100%)
same,Phytotoxicity soybean,soybean [1]; dose 2.5 g ai/a,0
same,Phytotoxicity soybean,soybean [1]; dose 5 g ai/a,0
same,Herbicidal Effect common purslane,common purslane; dose 2.5 g ai/a,5 (100%)
same,Herbicidal Effect common purslane,common purslane; dose 5 g ai/a,5 (100%)
same,Herbicidal Effect common lambsquaters,[2]; dose 2.5 g ai/a,5 (100%)
same,Herbicidal Effect common lambsquaters,[2]; dose 5 g ai/a,5 (100%)
same,Phytotoxicity soybean,soybean [3]; dose 2.5 g ai/a,1
same,Phytotoxicity soybean,soybean [3]; dose 5 g ai/a,2
same,Herbicidal Effect common purslane,[4]; dose 2.5 g ai/a,5 (100%)
same,Herbicidal Effect common purslane,[4]; dose 5 g ai/a,5 (100%)
same,Phytotoxicity wheat,wheat [5]; dose 2.5 g ai/a,0
same,Phytotoxicity wheat,wheat [5]; dose 5 g ai/a,0
same,Phytotoxicity Rice plant,rice plant,1
same,Herbicidal Effect velvetleaf,velvetleaf; dose 2.5 g ai/a,5 (100%)
same,Herbicidal Effect velvetleaf,velvetleaf; dose 5 g ai/a,5 (100%)
same,Herbicidal Effect southern crabgrass,[6]; dose 2.5 g ai/a,5 (100%)
same,Herbicidal Effect southern crabgrass,[6]; dose 5 g ai/a,5 (100%)
same,Herbicidal Effect Flat sedge,[7]; dose 2.5 g ai/a,3 (60%-less than 80%)
same,Herbicidal Effect Flat sedge,[7]; dose 5 g ai/a,5 (100%)
same,Herbicidal Effect Monochoria vaginalis,[8]; dose 2.5 g ai/a,5 (100%)
same,Herbicidal Effect Monochoria vaginalis,[8]; dose 5 g ai/a,5 (100%)
same,Herbicidal Effect slender amaranth,[9]; dose 2.5 g ai/a,5 (100%)
same,Herbicidal Effect slender amaranth,[9]; dose 5 g ai/a,5 (100%)
same,Herbicidal Effect slender amaranth,slender amaranth; dose 2.5 g ai/a,5 (100%)
same,Herbicidal Effect slender amaranth,slender amaranth; dose 5 g ai/a,5 (100%)
same,Herbicidal Effect Barnyard grass,[10]; dose 2.5 g ai/a,5 (100%)
same,Herbicidal Effect Barnyard grass,[10]; dose 5 g ai/a,5 (100%)
same,Herbicidal Effect Japanese bulrush,[11]; dose 2.5 g ai/a,4 (80%-less than 100%)
same,Herbicidal Effect Japanese bulrush,[11]; dose 5 g ai/a,5 (100%)
same,Phytotoxicity corn,corn [12]; dose 2.5 g ai/a,1
same,Phytotoxicity corn,corn [12]; dose 5 g ai/a,1
same,Phytotoxicity corn,corn [13]; dose 2.5 g ai/a,0
same,Phytotoxicity corn,corn [13]; dose 5 g ai/a,1
same,Herbicidal Effect southern crabgrass,southern crabgrass; dose 2.5 g ai/a,5 (100%)
same,Herbicidal Effect southern crabgrass,southern crabgrass; dose 5 g ai/a,5 (100%)
same,Herbicidal Effect velvetleaf,[14]; dose 2.5 g ai/a,3 (60%-less than 80%)
same,Herbicidal Effect velvetleaf,[14]; dose 5 g ai/a,4 (80%-less than 100%)
same,Phytotoxicity wheat,wheat [15]; dose 2.5 g ai/a,1
same,Phytotoxicity wheat,wheat [15]; dose 5 g ai/a,1
